Test results reported in US8754093B2, “Co-crystal of etravirine and nicotinamide” (Janssen R&D Ireland, priority 2009, dated 2014).

Legend:
[1] = Dissolution experiments with TMC125/nicotinamide co-crystal (10 mM HCl with 1% TPGS, HPLC); format: physicochemical; settings: Simulated Gastric Fluid with 1% TPGS, 37° C., 500 rpm
Experimental: This dissolution experiment was focused on looking at the difference between the cocrystal and TMC125 free base both neat and mixed with HPMC E5 Cps.
A: 100 mg co-crystal: 100 mg HPMC E5 Cps (powder blend)
B: 100 mg co-crystal (powder)
C: 78 mg free base: 100 mg HPMC E5 Cps (powder blend)
D: 78 mg free base (powder)
Powders were dispensed to 20 mL vials and in 20 mL of 10 mM HCl with 1% TPGS (d-alpha-tocopheryl polyethylene glycol 1000 succinate) was added to each vial. Each […], filtered through a 0.45 μm nylon filter via centrifugation and the solute was diluted in half and analyzed by HPLC for the concentration of TMC125.

[2] = cited from earlier work
[3] = traditional formulations; cited from earlier work

## Cc1cc(C#N)cc(C)c1Oc1nc(Nc2ccc(C#N)cc2)nc(N)c1Br [Neat TMC125 FB, 4-[[6-amino-5-bromo-2-[(4-cyanophenyl)amino]-4-pyrimidinyl]oxy]-3,5-dimethylbenzonitrile]
[1]; time 5 min
  Concentration of TMC125: 22.36 µg/mL
[1]; time 10 min
  Concentration of TMC125: 52.04 µg/mL
[1]; time 20 min
  Concentration of TMC125: 57.03 µg/mL
[1]; time 30 min
  Concentration of TMC125: 58.96 µg/mL
[1]; time 45 min
  Concentration of TMC125: 59.83 µg/mL
[1]; time 60 min
  Concentration of TMC125: 60.10 µg/mL
[2]
  solubility in aqueous media: very insoluble
[3]
  bioavailability: very low
